Reference: US6916905B2, “Dmt-Tic di-and tri-peptidic derivatives and related compositions and methods of use” (The United States of America as represented by the …, priority 2000, dated 2005)
“Also recorded” adds a separate entry of the source. Read-outs that look alike come from different tables or passages of the source. Non-standard residues stand in square brackets, D forms with d. Residues, ends and D or L forms follow the SMILES beside them. *: point of attachment. Dmt = Cc1cc(O)cc(C)c1C[C@H](N)C(=O)O; Tic = O=C(O)[C@@H]1Cc2ccccc2CN1; NHtBu = CC(C)(C)N*

Legend:
δ-opioid receptors [1] = biological target: T1, δ-opioid receptors (Rattus norvegicus, UniProt P33533); test: Rat brain synaptosome (P2) binding, agonist [3H]DPDPE (Example 47); conditions: for Agonist K1μ/Kiδ: selectivity, Kiδ from agonist radioligand [3H]DPDPE; for δ/μ selectivity, in words: from Table II binding
T1 construct: assayed with a rat brain synaptosomal preparation (P2); from tissue; host or cells: rat brain P2 synaptosomes
T1 sequence (P33533 whole entry): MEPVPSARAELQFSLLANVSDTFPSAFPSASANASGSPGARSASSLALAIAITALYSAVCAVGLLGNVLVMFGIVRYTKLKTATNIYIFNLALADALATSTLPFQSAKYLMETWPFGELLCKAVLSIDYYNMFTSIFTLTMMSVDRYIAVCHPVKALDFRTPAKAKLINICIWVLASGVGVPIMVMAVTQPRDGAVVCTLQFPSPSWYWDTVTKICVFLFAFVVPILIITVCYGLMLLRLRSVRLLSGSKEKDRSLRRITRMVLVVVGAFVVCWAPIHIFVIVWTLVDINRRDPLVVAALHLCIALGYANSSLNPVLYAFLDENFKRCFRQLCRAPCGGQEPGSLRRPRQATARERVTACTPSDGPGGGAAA
Experimental: (§2) Briefly, the agonists [^3H]DPDPE (30-60 Ci/mmol, NEN-DuPont) and [^3H]DAGO (30-60 Ci/mmol, Amersham) were used to label δ and μ sites, respectively, under saturation binding conditions (2 hrs at 22° C.). Excess unlabeled peptide (2 μM) established non-specific binding levels and the labeled membranes were rapidly filtered on Whatman GF/C glass fibre filters, thoroughly washed, dried and measured for radioactivity using CytoScint (ICN, Irvine, Calif.). […] The affinity constants (Ki) were calculated according to Cheng and Prusoff (Biochem. Pharmacol. 22: 3099-3108 (1973)).

δ-opioid receptors [2] = biological target: T1, δ-opioid receptors; test: Rat brain synaptosome (P2) binding, δ antagonist [3H]N,N(CH3)2-Dmt-Tic-OH (Example 47); conditions: for Antagonist K1μ/Kiδ: selectivity, Kiδ from antagonist radioligand [3H]N,N(CH3)2-Dmt-Tic-OH
Experimental: as §2

μ-opioid receptors = biological target: T2, μ-opioid receptors (Rattus norvegicus, UniProt P33535); test: Rat brain synaptosome (P2) binding, [3H]DAGO (Example 47)
T2 construct: assayed with a rat brain synaptosomal preparation (P2); from tissue; host or cells: rat brain P2 synaptosomes
T2 sequence (P33535 whole entry): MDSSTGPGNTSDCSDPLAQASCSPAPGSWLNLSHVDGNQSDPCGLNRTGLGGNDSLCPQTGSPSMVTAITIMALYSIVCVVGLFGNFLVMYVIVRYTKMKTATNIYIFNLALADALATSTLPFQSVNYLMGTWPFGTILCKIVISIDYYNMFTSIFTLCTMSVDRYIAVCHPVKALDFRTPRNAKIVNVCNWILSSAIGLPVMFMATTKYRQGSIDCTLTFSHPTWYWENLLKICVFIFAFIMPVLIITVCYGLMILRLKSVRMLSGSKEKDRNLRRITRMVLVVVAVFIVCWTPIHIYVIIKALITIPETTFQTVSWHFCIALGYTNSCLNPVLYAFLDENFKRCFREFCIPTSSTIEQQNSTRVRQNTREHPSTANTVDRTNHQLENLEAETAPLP

δ receptors = δ receptors (Mus musculus, UniProt P32300)
δ receptors, sequence (P32300 whole entry): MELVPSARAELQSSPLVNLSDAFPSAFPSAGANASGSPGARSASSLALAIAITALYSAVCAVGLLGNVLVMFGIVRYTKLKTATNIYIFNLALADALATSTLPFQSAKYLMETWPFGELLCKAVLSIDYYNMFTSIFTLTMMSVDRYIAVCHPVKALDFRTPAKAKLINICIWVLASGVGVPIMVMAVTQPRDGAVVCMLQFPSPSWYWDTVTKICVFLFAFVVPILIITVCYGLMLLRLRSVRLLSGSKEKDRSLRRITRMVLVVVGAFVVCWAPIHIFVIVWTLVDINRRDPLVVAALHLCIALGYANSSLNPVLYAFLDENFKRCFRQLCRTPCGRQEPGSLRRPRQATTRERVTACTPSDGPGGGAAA
Experimental: (§1) The functional bioactivity of the present inventive compounds was assessed using standard functional bioassays of δ and μ activity in MVD and GPI (Salvadori et al. (1995), supra; and Salvadori et al., J. Med. Chem. 36: 3748-3756 (1993)). […] Dose-response curves were obtained (Salvadori et al. (1995), supra) for both tissues. […] Data were derived from at least four independent tissue samples and dose-response curves from which the pA2 values were determined (Salvadori et al. (1997), supra) according to Arunlakshana and Schild (Br. J. Pharmacol. 14: 48-58 (1959)).

μ receptors = μ receptors (Cavia porcellus, UniProt P97266); test: Guinea pig ileum (GPI) functional bioassay (Example 48)
μ receptors, sequence (P97266 whole entry, looked up): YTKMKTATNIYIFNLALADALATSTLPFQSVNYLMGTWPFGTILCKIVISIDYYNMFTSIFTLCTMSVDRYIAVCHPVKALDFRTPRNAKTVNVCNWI
Experimental: as §1

hMDR-1 = hMDR-1 (Homo sapiens, UniProt P08183); test: Calcein AM assay for Pgp in hMDR-1 transfected G-185 fibroblasts (Example 49); conditions: for inhibition of hMDR-1 (Pgp), in words: calcein fluorescence; for order of inhibition of hMDR-1: rank within amide series
hMDR-1, sequence (P08183 whole entry): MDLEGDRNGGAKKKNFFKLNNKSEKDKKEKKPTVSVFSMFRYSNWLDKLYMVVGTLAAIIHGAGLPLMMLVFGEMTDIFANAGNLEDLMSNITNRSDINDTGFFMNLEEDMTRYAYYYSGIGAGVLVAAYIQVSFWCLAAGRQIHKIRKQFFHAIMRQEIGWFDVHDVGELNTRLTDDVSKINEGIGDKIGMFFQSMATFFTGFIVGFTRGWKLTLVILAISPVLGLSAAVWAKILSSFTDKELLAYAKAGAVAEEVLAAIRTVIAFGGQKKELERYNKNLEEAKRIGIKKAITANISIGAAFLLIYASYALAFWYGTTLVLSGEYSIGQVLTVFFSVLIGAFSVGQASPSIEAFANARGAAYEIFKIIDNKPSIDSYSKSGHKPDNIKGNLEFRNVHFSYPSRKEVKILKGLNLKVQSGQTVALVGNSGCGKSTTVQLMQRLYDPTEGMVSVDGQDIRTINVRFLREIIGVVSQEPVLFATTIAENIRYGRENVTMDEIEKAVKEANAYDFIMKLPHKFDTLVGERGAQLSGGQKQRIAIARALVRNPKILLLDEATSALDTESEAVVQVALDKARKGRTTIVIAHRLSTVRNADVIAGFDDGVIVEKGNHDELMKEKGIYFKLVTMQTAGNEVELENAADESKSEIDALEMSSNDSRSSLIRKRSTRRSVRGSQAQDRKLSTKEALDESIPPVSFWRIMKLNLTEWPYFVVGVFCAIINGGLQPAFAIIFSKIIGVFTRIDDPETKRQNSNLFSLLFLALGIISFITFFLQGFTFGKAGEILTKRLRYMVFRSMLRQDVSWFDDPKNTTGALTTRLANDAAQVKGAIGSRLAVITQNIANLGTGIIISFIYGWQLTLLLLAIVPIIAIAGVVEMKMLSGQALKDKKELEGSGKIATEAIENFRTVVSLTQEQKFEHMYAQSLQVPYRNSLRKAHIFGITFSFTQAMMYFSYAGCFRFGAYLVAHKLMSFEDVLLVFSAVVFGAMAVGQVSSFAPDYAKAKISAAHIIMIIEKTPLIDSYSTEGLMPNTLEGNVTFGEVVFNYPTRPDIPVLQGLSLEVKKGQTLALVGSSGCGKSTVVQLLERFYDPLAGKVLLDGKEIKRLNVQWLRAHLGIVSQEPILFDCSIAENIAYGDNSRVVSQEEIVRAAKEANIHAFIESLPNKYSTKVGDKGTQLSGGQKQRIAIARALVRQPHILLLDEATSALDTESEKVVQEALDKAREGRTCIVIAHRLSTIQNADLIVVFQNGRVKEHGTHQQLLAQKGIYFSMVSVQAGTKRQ
Experimental: Stably transfected G-185 fibroblasts containing hMDR-1 and NIH 3T3 cell lines were grown to confluent monolayers in DMEM containing 4.5 g glucose/1, 10% fetal calf serum, L-glutamine, penicillin (50 units/ml), streptomycin (50 μg/ml) and 1 mM sodium pyruvate in 5% CO2 at 37° C. G-185 cells were maintained in […] colchicine.
The assay for Pgp is based on the diffusion of non-fluorescent calcein AM across the cell membrane. Calcein AM is then hydrolyzed and accumulates as the fluorescent calcein. In transfected cells expressing excess hMDR-1, Pgp extrudes calcein AM from the cell before hydrolysis occurs; inhibition of hMDR-1 results in the accumulation of intracellular calcein. Transfected G-185 cells and the NIH 3T3 cells were analyzed in triplicate using seven graded dosages of verapamil or the opioid peptides in 96-well plates. Cells (2.5×10^6/well) were incubated in 100 μl culture medium for 15 min at 37° C. and 50 μl of 1 μM calcein AM in PBS, plus 50 μl of verapamil or one of the present inventive compounds in PBS, or 100 μl of PBS alone (control) were added. Cells were mixed and incubated for 15 min at 37° C., then centrifuged for 5 min at 2,000×g, and then washed three times in 200 μl PBS. Cell pellets were resuspended in 200 μl PBS and transferred to white Microfluor Plates (Nunc, Copenhagen, Denmark) in order to measure calcein-specific fluorescence (494 nm absorption; 517 nm emission). Internal controls were carried out with each experiment using verapamil and PBS in order to compare the consistency between cell preparations. Means±SE (error bars) were determined and plotted using Prism™ (GraphPad, San Diego, Calif.).

[3] = rat brain synaptosomes (P2), mean ± SEM, n in parentheses, read-out: Kiδ(nM) [^3H]DPDPE
[4] = rat brain synaptosomes (P2), δ antagonist radioligand, mean ± SEM, n in parentheses, read-out: Kiδ(nM) [^3H]N,N(CH3)2-Dmt-Tic-OH
[5] = rat brain synaptosomes (P2), mean ± SEM, n in parentheses, read-out: Kiμ (nM) [^3H]DAGO
[6] = MVD pA2 (range), δ antagonism against deltorphin C, mean (range)
[7] = δ antagonism, Ke = antilog of pA2
[8] = MVD Ke(nM), δ antagonism, Ke = antilog of pA2

Cc1cc(O)cc(C)c1C[C@@H](C(=O)N1Cc2ccccc2C[C@H]1C(=O)O)N1CCCCC1 [Compound 3, [des-NH2-α-piperidine-1-yl]-Dmt-Tic-OH]
Ki (δ-opioid receptors [1]; [3]): 1.18 ± 0.1 nM | Agonist K1μ/Kiδ (δ-opioid receptors [1]): 1728 | Ki (δ-opioid receptors [2]; [4]): 0.74 ± 0.3 nM | Antagonist K1μ/Kiδ (δ-opioid receptors [2]): 2755 | Ki (μ-opioid receptors; [5]): 2040 ± 264 nM | bioactivity on MVD (δ), in words (δ receptors): detrimental for all bioactivity measurements on MVD | Kb (δ receptors; [6]): 49 nM | MVD Ke (δ receptors; [7]): 49 nM | EC50 (μ receptors): > 10000 nM | inhibition of hMDR-1 (Pgp), in words (hMDR-1): inactive

CNC(=O)[C@@H]1Cc2ccccc2CN1C(=O)[C@@H](N)Cc1c(C)cc(O)cc1C [Compound 7, H-Dmt-Tic-NHMe] (H-[Dmt]-[Tic]-NHMe)
Ki (μ-opioid receptors; [5]): 85.5 ± 7.7 nM | EC50 (δ receptors): 21200 nM | bioactivity on MVD (δ), in words (δ receptors): extraordinarily weak δ agonism | Kb (δ receptors; [8]): > 10000 nM | MVD pA2 (range) (δ receptors; δ antagonism against deltorphin C, mean (range)): —^d | EC50 (μ receptors): > 10000 nM | Kb (μ receptors): 1150 nM | bioactivity on GPI (μ), in words (μ receptors): low μ antagonism | GPI Ke (μ receptors; μ antagonism): 1.15 µM | inhibition of hMDR-1 (Pgp), in words (hMDR-1): inactive

Cc1cc(O)cc(C)c1C[C@H](N)C(=O)N1Cc2ccccc2C[C@H]1C(=O)NC(C)(C)C [Compound 9, H-Dmt-Tic-NH-tBu] (H-[Dmt]-[Tic]-NHtBu)
δ/μ selectivity, in words (δ-opioid receptors [1]): essentially nonselective | Ki (δ-opioid receptors [1]; [3]): 0.43 ± 0.07 nM | Agonist K1μ/Kiδ (δ-opioid receptors [1]): 14 | Ki (δ-opioid receptors [2]; [4]): 0.93 ± 0.15 nM | Antagonist K1μ/Kiδ (δ-opioid receptors [2]): 6 | Ki (μ-opioid receptors; [5]): 5.96 ± 0.82 nM | bioactivity on MVD (δ), in words (δ receptors): highest δ-antagonist functional bioactivities | Kb (δ receptors; [8]): 1.74 nM | Kb (δ receptors; [6]): 5.75 nM | EC50 (μ receptors): 1040 nM | order of inhibition of hMDR-1 (hMDR-1): (compound 9)>>H-Dmt-Tic-NHMe (compound 7) (inactive)

Cc1cc(O)cc(C)c1C[C@H](N)C(=O)N1Cc2ccccc2C[C@H]1C(=O)NC12CC3CC(CC(C3)C1)C2 [Compound 11, H-Dmt-Tic-NH-1-adamantane]
Ki (δ-opioid receptors [1]): 0.26 ± 0.05 nM | δ/μ selectivity, in words (δ-opioid receptors [1]): weakly μ selective | Agonist K1μ/Kiδ (δ-opioid receptors [1]): 3 | Ki (δ-opioid receptors [2]): 1.01 ± 0.26 nM | Antagonist K1μ/Kiδ (δ-opioid receptors [2]): 0.8 | Ki (μ-opioid receptors): 0.76 ± 0.05 nM | EC50 (δ receptors): 870 nM | Kb (δ receptors; [8]): > 10000 nM | EC50 (μ receptors): 36 nM | bioactivity on GPI (μ), in words (μ receptors): moderate μ agonism | order of inhibition of hMDR-1 (hMDR-1): (compound 11)>H-Dmt-Tic-Ala-NH-1-adamantane (compound 21)

Cc1cc(O)cc(C)c1C[C@@H](C(=O)N1Cc2ccccc2C[C@H]1C(=O)NC(C)(C)C)N(C)C [Compound 14, N,N(Me)2-Dmt-Tic-NH-tBu]
Ki (μ-opioid receptors; [5]): 226 ± 21 nM | bioactivity on MVD (δ), in words (δ receptors): modest δ antagonism | Kb (δ receptors; [6]): 14.1 nM | MVD Ke (δ receptors; [7]): 14.1 nM | EC50 (μ receptors): > 10000 nM | Kb (μ receptors): 300 nM | bioactivity on GPI (μ), in words (μ receptors): weak μ antagonism | order of inhibition of hMDR-1 (hMDR-1): (compound 14)>H-Dmt-Tic-Ala-NH-tBu (compound 20)

Cc1cc(O)cc(C)c1C[C@@H](C(=O)N1Cc2ccccc2C[C@H]1C(=O)NC12CC3CC(CC(C3)C1)C2)N(C)C [Compound 15, N,N(Me)2-Dmt-Tic-NH-1-adamantane]
Ki (δ-opioid receptors [1]): 0.16 ± 0.17 nM | δ/μ selectivity, in words (δ-opioid receptors [1]): essentially nonselective | Agonist K1μ/Kiδ (δ-opioid receptors [1]): 7 | Ki (δ-opioid receptors [2]): 0.12 ± 0.02 nM | Antagonist K1μ/Kiδ (δ-opioid receptors [2]): 9 | Ki (μ-opioid receptors): 1.12 ± 0.1 nM | rise in μ affinity relative to N,N(Me)2-Dmt-Tic-OH (μ-opioid receptors): ~2,200 fold | Kb (δ receptors; [6]): 0.871 nM | MVD Ke (δ receptors; [7]): 0.87 nM | EC50 (μ receptors): 16 nM | bioactivity on GPI (μ), in words (μ receptors): clearly displayed μ agonism | order of inhibition of hMDR-1 (hMDR-1): (compound 15)=H-Dmt-Tic-NH-1-adamantane (compound 11)

Cc1cc(O)cc(C)c1C[C@H](N)C(=O)N1Cc2ccccc2C[C@H]1C(=O)N[C@@H](C)C(=O)NC12CC3CC(CC(C3)C1)C2 [Compound 21, H-Dmt-Tic-Ala-NH-1-adamantane]
Ki (μ-opioid receptors): 2.52 ± 0.56 nM | bioactivity on MVD (δ), in words (δ receptors): highest δ-antagonist functional bioactivities | Kb (δ receptors; [6]): 0.513 nM | MVD Ke (δ receptors; [7]): 0.51 nM | EC50 (μ receptors): 1000 nM | order of inhibition of hMDR-1 (hMDR-1): (compound 21)>>N,N(Me)2-Dmt-Tic-OH (inactive)

CC1(C)SSC(C)(C)[C@@H](NC(=O)[C@@H](N)Cc2ccc(O)cc2)C(=O)NCC(=O)N[C@@H](Cc2ccccc2)C(=O)N[C@H]1C(=O)O [DPDPE, H-Tyr-[D-Pen-Gly-Phe-D-Pen] enkephalin]
inhibition of hMDR-1 (Pgp), in words (hMDR-1): inactive; also recorded: lack of inhibition

C[C@@H](NC(=O)[C@@H](N)Cc1ccc(O)cc1)C(=O)N[C@@H](Cc1ccccc1)C(=O)NCC(=O)N[C@@H](Cc1ccc(O)cc1)C(=O)N1CCC[C@H]1C(=O)N[C@@H](CO)C(N)=O [Dermorphin, H-Tyr-D-Ala-Phe-Gly-Tyr-Pro-Ser-NH2]
IC50 (μ receptors): 1.82 nM | inhibition of hMDR-1 (Pgp), in words (hMDR-1): lack of inhibition | inhibition of hMDR-1 (Pgp), in words (hMDR-1; listed as DER): inactive

C[C@@H](NC(=O)[C@@H](N)Cc1ccc(O)cc1)C(=O)N[C@@H](Cc1ccccc1)C(=O)N[C@@H](Cc1c[nH]c2ccccc12)C(=O)N[C@@H](Cc1ccc(O)cc1)C(=O)N1CCC[C@H]1C(=O)N[C@@H](CCCCN)C(=O)O [[Trp^4,Lys-OH^7]DER, H-Tyr-D-Ala-Phe-Trp-Tyr-Pro-Lys-OH] (H-Y[dA]FWYPK-OH)
inhibition of hMDR-1 (Pgp), in words (hMDR-1): inactive

C[C@@H](NC(=O)[C@@H](N)Cc1ccc(O)cc1)C(=O)N[C@@H](Cc1ccccc1)C(=O)N[C@@H](Cc1c[nH]c2ccccc12)C(=O)N[C@@H](Cc1ccc(O)cc1)C(N)=O [[Trp^4,Tyr^5]DER, H-Tyr-D-Ala-Phe-Trp-Tyr-NH2] (H-Y[dA]FWY-NH2)
inhibition of hMDR-1 (Pgp), in words (hMDR-1): inactive

Cc1cc(O)cc(C)c1C[C@@H]1NC(=O)[C@@H]2Cc3ccccc3CN2C1=O [cyclo (DMT-Tic), reference compound]
Ki (δ-opioid receptors [1]): 9.58 ± 1.98 nM | Agonist K1μ/Kiδ (δ-opioid receptors [1]): 635 ± 69 (3-5) | Antagonist K1μ/Kiδ (δ-opioid receptors [2]): no activity | Kiμ (nM) [^3H]DAGO (μ-opioid receptors; rat brain synaptosomes (P2), mean ± SEM, n in parentheses): no activity | inhibition of hMDR-1 (Pgp), in words (hMDR-1): moderately effective inhibitor

CC(C)[C@H](NC(=O)[C@H](CCC(=O)O)NC(=O)[C@H](Cc1ccccc1)NC(=O)[C@@H](C)NC(=O)[C@@H](N)Cc1ccc(O)cc1)C(=O)N[C@H](C(=O)NCC(N)=O)C(C)C [deltorphin B, H-Tyr-D-Ala-Phe-Glu-Val-Val-Gly-NH2]
inhibition of hMDR-1 (Pgp), in words (hMDR-1): inactive

Oc1ccc2c3c1O[C@H]1c4[nH]c5ccccc5c4C[C@@]4(O)[C@@H](C2)N(CC2CC2)CC[C@]314 [naltrindole]
inhibition of hMDR-1 (Pgp), in words (hMDR-1): inhibition that dissipated at high concentrations

COc1ccc(CCN(C)CCCC(C#N)(c2ccc(OC)c(OC)c2)C(C)C)cc1OC (stereo not shown) [verapamil]
maximum effective dose (hMDR-1): 75 to 100 µM

H-Dmt-Sar-Bid [DSB]
inhibition of hMDR-1 (Pgp), in words (hMDR-1): inactive

H-Tyr-D-Ala-Gly-N-MePhe-Met(O)-ol [DAMME]
inhibition of hMDR-1 (Pgp), in words (hMDR-1): inactive; also recorded: lack of inhibition

deltorphin
inhibition of hMDR-1 (Pgp), in words (hMDR-1): lack of inhibition
